Laboratory results from US4808618A, “Substituted 1,3-dialkylpyrido[4,3-d]pyrimidine-2,4-diones” (Nippon Zoki Pharmaceutical Co., Ltd., priority 1986, dated 1989).

Columns and labels:
[1] = system: PCA (Passive Cutaneous Anaphylaxis) reaction; experiment: PCA (Passive Cutaneous Anaphylaxis) reaction in rats, anti-allergic effect; type: in vivo, rat (Wister-strain; conditions: 20 mg/kg oral, 1 hour before challenge; Wister-strain male rats; dye absorbance at 620 nm
Protocol: PCA (Passive Cutaneous Anaphylaxis) reaction in rats was taken as an index to an anti-allergic effect of the compound of the present invention.
In order to perform sensitization, anti-DNP-Asc (dinitrophenylated Ascaris extracts) serum diluted with saline was injected intradermally at 4 sites on the shaved back of groups of 6 Wister-strain male rats (6 weeks of age). 1 hour after oral administration of the test drug, the mixture of equivalent amount of DNP-Asc (5 mg/ml) and 2% Evans blue were intravenously injected to generate PCA reaction. 30 minutes thereafter, rats were killed by decapitation and exsanguinated. The skin was opened in order to evaluate the leakage of blue dye. The obtained skin was dissolved in 2N potassium hydroxide, then 2N phosphoric acid and acetone were added thereto. The amount of dye was determined by measurement of absorbance at 620 nm after centrifugation.

[2] = Acute toxicity test (oral, LD50 by Litchfield-Wilcoxon's method); conditions: mouse, in vivo, ICR-strain male mice, groups of 5, mortality for 14 days
Protocol: The test compounds were orally administered to groups of 5 ICR-strainmale mice. LD50 value of the compound of the present invention was calculated by the Litchfield-Wilcoxon's method based on mortality for 14 days after drug administration.

| SMILES | Inhibition (PCA reaction) [1] [%] | LD50 at 336 h [2] [mg/kg] |
| --- | --- | --- |
| Cn1c(=O)c2cnccc2n(C)c1=O [Compound 1, 1,3-dimethylpyrido[4,3-d]pyrimidine-2,4-dione] | 85.3 | 400 |
| Cn1c(=O)c2c(N)nccc2n(C)c1=O [Compound 3, 5-amino-1,3-dimethylpyrido[4,3-d]pyrimidine-2,4-dione] | 77.3 | 710 |
| CCn1c(=O)c2c(N)nccc2n(CC)c1=O [Compound 4, 5-amino-1,3-diethylpyrido[4,3-d]pyrimidine-2,4-dione] | 89.3 |  |
| CNc1nccc2c1c(=O)n(C)c(=O)n2C [Compound 6, 5-methylamino-1,3-dimethylpyrido[4,3-d]pyrimidine-2,4-dione] | 92.0 | 720 |
| CCn1c(=O)c2c(NC)nccc2n(CC)c1=O [Compound 7, 5-methylamino-1,3-diethylpyrido[4,3-d]pyrimidine-2,4-dione] | 72.7 |  |
| CC(C)Nc1nccc2c1c(=O)n(C)c(=O)n2C [Compound 8, 5-isopropylamino-1,3-dimethylpyrido[4,3-d]pyrimidine-2,4-dione] | 73.4 | 700 |
| Cn1c(=O)c2[nH]cnc2n(C)c1=O [Theophylline, reference compound] | 78.7 |  |
